Laboratory results from US9993001B2, “Herbicidal composition” (ISHIHARA SANGYO KAISHA, LTD., priority 2014, dated 2018).

Assays:
Assay type in all cases: in vivo
[1] = tested on: barnyardgrass (Echinochloa crus-qalli L.); assay: Test Example 4: soybean field, soil treatment, metobromuron + trifluralin; conditions: 890 g/ha, soil treatment, soybean field, 50th day after treatment, read-out: Growth inhibition rate of barnyardgrass (%) Measured value
From the text: (§1) When the herbicidal activity in a case where two active ingredients are combined, is larger than the simple sum of the respective herbicidal activities of the two active ingredients (the expected activity), it is called a synergistic effect. The activity expected by the combination of two active ingredients can be calculated as follows (Colby S. R., “Weed”, vol. 15, p. 20-22, 1967). E=α+β−(α×β[…]) where α: growth inhibition rate when treated with x (g/ha) of herbicide X, • β: growth inhibition rate when treated with y (g/ha) of herbicide Y, • E: growth inhibition rate expected when treated with x (g/ha) of herbicide X and y (g/ha) of herbicide Y.
(§2) On the 19th day after treatment, the state of growth of barnyardgrass was visually observed and evaluated in accordance with the following standards. The growth inhibition rate (%) [measured value] and the growth inhibition rate (%) [calculated value] calculated by the Colby's method, are shown in Table 2.
(§3) Growth inhibition rate (%)=inhibition rate) (%) of 0 (equivalent to the non-treated area) to 100 (complete kill) […]
On the 50th day after treatment, the state of growth of barnyardgrass (Echinochloa crus-qalli L.) which occurred naturally, was visually observed and evaluated in the same manner as in Test Example 1.

[2] = tested on: common chickweed (Stellaria media L.); assay: Test Example 25: pot, soil treatment, metobromuron + trifluralin; conditions: 445 g/ha, soil treatment, pot, 21st day after treatment, read-out: Growth inhibition rate of common chickweed (%) Measured value
[3] = tested on: common lambsquarters (Chenopodium album L.); assay: Test Example 24: pot, soil treatment, metobromuron + trifluralin; conditions: soil treatment, pot, 21st day after treatment, read-out: Growth inhibition rate of common lambsquarters (%) Measured value
From the text: as §1, §2
(§4) Growth inhibition rate (%)=inhibition rate) (%) of 0 (equivalent to the non-treated area) to 100 (complete kill)
Soil was put into a 1/300,000 ha pot, and seeds of common lambsquarters (Chenopodium album L.) were sown. On the day after seeding, predetermined amounts of SC containing metobromuron as active ingredient (same as in Test Example 1) and EC containing trifluralin as active ingredient (same as in Test Example 4) were diluted with water corresponding to 1,000 L per hectare and applied for soil treatment.
On the 21st day after treatment, the state of growth of common lambsquarters was visually observed and evaluated in the same manner as in Test Example 1.

[4] = tested on: Oriental lady's thumb (Persicaria longiseta); assay: Test Example 7: common bean field, soil treatment, metobromuron + trifluralin; conditions: 1335 g/ha, soil treatment, common bean field, 49th day after treatment, read-out: Growth inhibition rate of Oriental lady's thumb (%) Measured value
From the text: as §1, §2, §3
On the 49th day after treatment, the state of growth of Oriental lady's thumb (Persicaria longiseta) which occurred naturally, was visually observed and evaluated in the same manner as in Test Example 1.

[5] = tested on: black nightshade (Solanum nigrum L.); assay: Test Example 23: pot, soil treatment, metobromuron + fluazifop-P-butyl; conditions: 131.25 g/ha; soil treatment, pot; 20th day after treatment
From the text: as §1, §2, §4
Soil was put into a 1/300,000 ha pot, and seeds of black nightshade (Solanum nigrum L.) were sown. […]
On the 20th day after treatment, the state of growth of black nightshade was visually observed and evaluated in the same manner as in Test Example 1.

[6] = tested on: barnyardgrass (Echinochloa crus-qalli L.); assay: Test Example 5: adzuki bean field, soil treatment, metobromuron + fluazifop-P-butyl; conditions: 700 g/ha; soil treatment, adzuki bean field; 39th day after treatment
From the text: as §1, §2, §3
On the 39th day after treatment, the state of growth of barnyardgrass (Echinochloa crus-qalli L.) which occurred naturally, was visually observed and evaluated in the same manner as in Test Example 1.

Row | Structure (SMILES) | inhibition at 890 g/ha [1] [%] | inhibition at 445 g/ha [2] [%] | inhibition at 296.7 g/ha ([3]; 296.7 g/ha) [%] | inhibition at 445 g/ha ([3]; 445 g/ha) [%] | inhibition at 667.5 g/ha ([3]; 667.5 g/ha) [%] | inhibition at 1335 g/ha [4] [%] | Growth inhibition rate of black nightshade (%) Measured value [5] [%] | Growth inhibition rate of barnyardgrass (%) Measured value [6] [%]
1 | CCCN(CCC)c1c([N+](=O)[O-])cc(C(F)(F)F)cc1[N+](=O)[O-] [Trifluralin, α,α,α-trifluoro-2,6-dinitro-N,N-dipropyl-p-toluidine] | 20 | 35 | 20 | 15 | 48 | 40 | – | –
2 | CCCCOC(=O)[C@@H](C)Oc1ccc(Oc2ccc(C(F)(F)F)cn2)cc1 [Fluazifop-P-butyl, butyl (R)-2-[4-[5-(trifluoromethyl)-2-pyridyloxy]phenoxy] propionate] | – | – | – | – | – | – | 25 | 55
